This passage reports IC50, Shift and inhibition results from patent US8242111B2, “Cyclic inhibitors of 11β-hydroxysteroid dehydrogenase 1” (Vitae Pharmaceuticals, Inc., priority 2008, dated 2012).

For experiment [1], the target named is T1, human 11β-HSD1 (Homo sapiens, UniProt P28845).
T1 construct: expressed in transfected cells; host or cells: CHO cells (microsomes)
Put plainly: Biological Test Example 4: inhibition of microsomal 11β-HSD1 in the presence of 50% human plasma. It is filed as biochemical. The conditions noted are these: examples; for IC50: 50% human plasma; for Shift: IC50 in Biological Test Example 4 divided by IC50 in Biological Test Example 1.

Experiment [2] concerns the target T1, human 11β-HSD1. Put plainly: Biological Test Example 1: inhibition of a microsomal preparation of 11β-HSD1 (SPA). It is filed as biochemical. As to conditions: for inhibition at 0.1 µM: read-out: Average % inhibition at 100 nM.
Where [3] appears, read: Biological Test Example 1, read-out: IC50 Range.
Setting [4] is: Biological Test Example 1 IC50 (nM), examples.

Each structure is given as a SMILES string. Where only a bound is given, the exact number is not on record here.

T1 sequence (P28845 whole entry): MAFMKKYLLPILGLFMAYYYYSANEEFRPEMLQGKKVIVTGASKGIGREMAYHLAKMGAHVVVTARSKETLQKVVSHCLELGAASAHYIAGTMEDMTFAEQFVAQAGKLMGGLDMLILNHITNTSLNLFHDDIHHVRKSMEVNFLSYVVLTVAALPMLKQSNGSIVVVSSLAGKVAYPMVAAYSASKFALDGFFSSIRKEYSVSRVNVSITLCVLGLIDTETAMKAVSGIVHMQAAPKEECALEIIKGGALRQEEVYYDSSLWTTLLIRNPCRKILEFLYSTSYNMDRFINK

For `CC(C)(O)C[C@]1(c2ccccc2)CCN([C@H]2CCCN(c3ncc(F)cn3)C2)C(=O)O1` [Example 7, (S)-3-((S)-1-(5-fluoropyrimidin-2-yl)piperidin-3-yl)-6-(2-hydroxy-2-methylpropyl)-6-phenyl-1,3-oxazinan-2-one], the IC50 at human 11β-HSD1 [1] was 14.8 nM; on human 11β-HSD1 [2] (setting [3]), under 100 nM; against human 11β-HSD1 [2] (setting [4]), 6.1 nM. For the same molecule, the Shift on human 11β-HSD1 [1] is 2.4. Besides, the inhibition at 0.1 µM on human 11β-HSD1 [2] worked out at 89.5%.

Take `COC(=O)c1cnc(N2CCC[C@H](N3CC[C@](CC(C)(C)O)(c4ccccc4)OC3=O)C2)nc1` [Example 10]: the IC50 is 69.2 nM at human 11β-HSD1 [1], under 100 nM on human 11β-HSD1 [2] (setting [3]) and 5.5 nM against human 11β-HSD1 [2] (setting [4]). In addition, the Shift at human 11β-HSD1 [1] was found to be 12.7. Also, the inhibition at 0.1 µM at human 11β-HSD1 [2] was determined as 85.8%.

As for `COc1cnc(N2CCC[C@H](N3CC[C@](CC(C)(C)O)(c4ccccc4)OC3=O)C2)nc1` [Example 12, (S)-6-(2-hydroxy-2-methylpropyl)-3-((S)-1-(5-methoxypyrimidin-2-yl)piperidin-3-yl)-6-phenyl-1,3-oxazinan-2-one], the results for the IC50 on human 11β-HSD1 [1], on human 11β-HSD1 [2] (setting [3]) and against human 11β-HSD1 [2] (setting [4]) were 10.4 nM, under 100 nM and 4.3 nM, respectively. For the same molecule, on human 11β-HSD1 [1], the Shift is recorded as 2.4. Besides, on human 11β-HSD1 [2], the inhibition at 0.1 µM was 91.7%.

Turning to `CC(C)(O)C[C@]1(c2ccccc2)CCN([C@H]2CCN(c3ncc(Cl)cn3)C2)C(=O)O1` [Example 14, (S)-3-((S)-1-(5-chloropyrimidin-2-yl)pyrrolidin-3-yl)-6-(2-hydroxy-2-methylpropyl)-6-phenyl-1,3-oxazinan-2-one], the figures for the 50% inhibitory concentration (IC50) at human 11β-HSD1 [1], at human 11β-HSD1 [2] (setting [3]) and against human 11β-HSD1 [2] (setting [4]) were 7.8 nM, under 100 nM and 3.5 nM, respectively. For the same molecule, the Shift at human 11β-HSD1 [1] is 2.2. Further, the inhibition at 0.1 µM at human 11β-HSD1 [2] turned out to be 93.8%.

Regarding `CC(C)(O)C[C@]1(c2ccccc2)CCN([C@H]2CCN(c3ccc(C(F)(F)F)cn3)C2)C(=O)O1` [Example 15, (S)-6-(2-hydroxy-2-methylpropyl)-6-phenyl-3-((S)-1-(5-(trifluoromethyl)pyridin-2-yl)pyrrolidin-3-yl)-1,3-oxazinan-2-one], the IC50 at human 11β-HSD1 [1] was 37.6 nM; on human 11β-HSD1 [2] (setting [3]) it was under 100 nM; against human 11β-HSD1 [2] (setting [4]), 4.3 nM. The Shift on human 11β-HSD1 [1] is listed as 8.7. At human 11β-HSD1 [2], the inhibition at 0.1 µM turned out to be 92.2%.

On to `O=C1O[C@@](CCCO)(c2ccc(F)cc2)CCN1[C@H]1CCCN(c2ccc(C(F)(F)F)cn2)C1` [Example 16, (R)-6-(4-fluorophenyl)-6-(3-hydroxypropyl)-3-((S)-1-(5-(trifluoromethyl)pyridin-2-yl)piperidin-3-yl)-1,3-oxazinan-2-one], for which the half-inhibitory concentration (IC50) at human 11β-HSD1 [1] is 14.4 nM; on human 11β-HSD1 [2] (setting [3]) it was under 100 nM; against human 11β-HSD1 [2] (setting [4]), 1.4 nM. The Shift on human 11β-HSD1 [1] is recorded as 10.0. The inhibition at 0.1 µM on human 11β-HSD1 [2] is 94.9%.

For the molecule `CC(C)(O)C[C@]1(c2ccccc2)CCN([C@H]2CCN(c3nccc(C(F)(F)F)n3)C2)C(=O)O1` [Example 23, (S)-6-(2-hydroxy-2-methylpropyl)-6-phenyl-3-((S)-1-(4-(trifluoromethyl)pyrimidin-2-yl)pyrrolidin-3-yl)-1,3-oxazinan-2-one], the IC50 is 52.8 nM on human 11β-HSD1 [1], under 100 nM on human 11β-HSD1 [2] (setting [3]) and 5.8 nM on human 11β-HSD1 [2] (setting [4]). Also, at human 11β-HSD1 [1], the Shift was 9.2. For the same molecule, the inhibition at 0.1 µM on human 11β-HSD1 [2] was found to be 94.1%.

The term IC50 denotes the point on the concentration scale where inhibition reaches its midpoint. As a reminder, the inhibition is the relative decrease from the control value, in per cent.
